Experimental data from ChEMBL document CHEMBL4842382, “Fragment-Based Discovery of Small Molecules Bound to T-Cell Immunoglobulin and Mucin Domain-Containing Molecule 3 (TIM-3)” (J Med Chem, 2021).

Legend:
[1] = Aqueous solubility of the compound; format: physicochemical; settings: buffer
[2] = biological target: T1, Hepatitis A virus cellular receptor 2 (Homo sapiens, UniProt Q8TDQ0)
T1 sequence (Q8TDQ0 whole entry): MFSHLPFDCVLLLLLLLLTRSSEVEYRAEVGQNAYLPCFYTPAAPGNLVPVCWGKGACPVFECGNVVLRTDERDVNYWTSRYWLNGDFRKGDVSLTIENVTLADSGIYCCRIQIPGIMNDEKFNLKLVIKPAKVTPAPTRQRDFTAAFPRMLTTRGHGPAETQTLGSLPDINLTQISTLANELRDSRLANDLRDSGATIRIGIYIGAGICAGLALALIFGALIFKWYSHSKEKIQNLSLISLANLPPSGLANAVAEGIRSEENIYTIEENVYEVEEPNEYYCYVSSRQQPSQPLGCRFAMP
Description: Binding affinity to human TIM-3 IgV domain (residues 22 to 130) expressed in Escherichia coli BL21 (DE3) by 1H-15N SOFAST-HMQC spectroscopic analysis

[3] = biological target: T1, Hepatitis A virus cellular receptor 2; test: Displacement of FITC-labelled 5-(((8-Chloro-9-(3-methylpyridin-4-yl)-5-oxo-5,6-dihydro-[1,2,4]triazolo[1,5-c]quinazolin-2-yl)methyl)carbamoyl)-2-(6-hydroxy-3-oxo-3H-xanthen-9-yl)benzoic acid probe from human TIM-3 IgV domain (residues 22 to 130) expressed in Escherichia coli BL21 (DE3) by FPA competition assay

| SMILES | solubility [1] | Kd [2] [µM] | further results |
| --- | --- | --- | --- |
| Cc1cccc(Nc2cc(=O)n(C)c(=O)n2C)c1 | – | 1400 | – |
| Sc1nc2cc(Cl)ccc2[nH]1 | – | 670 | – |
| Cc1nc2c3cc(-c4ccncc4C)c(Cl)cc3[nH]c(=O)n2n1 | – | 10 | IC50 [3]: 53 µM; Ki [3]: 4.9 µM |
| CN(C)CCn1c(=S)[nH]c2ccccc2c1=O | – | 530 | – |
| O=C1CC(c2ccccc2)c2cc3c(cc2N1)OCO3 (stereo not drawn) | – | > 2000 | – |

Now from value to compound, other results behind:

| solubility [1] | Kd [2] [µM] | SMILES | further results |
| --- | --- | --- | --- |
| Insoluble | – | Cc1nc2c3cc(-c4ccncc4C)ccc3[nH]c(=O)n2n1 | – |
| Insoluble | > 2000 | Oc1nc2ccccc2c2nc(-c3ccccc3)nn12 | – |
| – | 460 | Cc1cc(-c2nc3ncccc3o2)ccc1N | – |
| – | 850 | Cc1ccc(Nc2ncnc3c2cnn3C)cc1 | – |
| Insoluble | – | Cc1nc2c3cc(Br)ccc3[nH]c(=O)n2n1 | – |
